Test results as given in patent US20240381872A1, “SUBSTITUTED 2,3-DIHYDRO[1,3]THIAZOLO[4,5-B]PYRIDINES, SALTS THEREOF AND THEIR USE AS HERBICIDALLY ACTIVE SUBSTANCES” (BAYER AKTIENGESELLSCHAFT, priority 2021, published 2024).

What was measured:
Type in all cases: in vivo
[1] = system: Abutilon theophrasti (ABUTH); test: Herbicidal pre-emergence action, section A (Table A1); conditions: Abutilon theophrasti, pre-emergence, 504 h, visual grading after ca. 3 weeks vs untreated controls, read-out: pre-emergence activity against ABUTH in %; for pest or weed control at 1280 g/ha: application rate 1280 g/ha; for pest or weed control at 320 g/ha: application rate 320 g/ha
Text: Seeds of mono- and dicotyledonous weed plants were sown in plastic pots (double sowings with one species of mono- and one species of dicotyledonous weed plants per pot), in sandy loam, and covered with soil. The compounds according to the invention, formulated in the form of wettable powders (WP) or as emulsifiable concentrates (EC), were applied to the surface of the covering soil as aqueous suspension or emulsion, with the addition of 0.5% of an additive, at an application rate of 600 l of water per hectare (converted). Following treatment, the pots were placed in a greenhouse and kept under optimum growth conditions for the test plants. The visual grading of the damage to the test plants was carried out after ca. 3 weeks in comparison to untreated controls (herbicidal effect in percent (%): 100% effect=plants have died off, 0% effect=as control plants).

[2] = system: Amaranthus retroflexus (AMARE); test: Herbicidal post-emergence action, section E (Table E3); conditions: Amaranthus retroflexus, post-emergence, 504 h; application rate 320 g/ha; assessed visually after ca. 3 weeks; read-out: post-emergence activity against AMARE in %
Text: (§1) Seeds of mono- and dicotyledonous weed plants and crop plants were sown, in plastic or organic planting pots, in sandy loam, covered with soil and grown in a greenhouse under controlled growth conditions. 2 to 3 weeks after sowing, the test plants were sprayed in the single-leaf stage. The compounds according to the invention, formulated in form of wettable powders (WP) or as emulsifiable concentrates (EC), were sprayed onto the green plant parts as aqueous suspension or emulsion, with the addition of 0.5% of an additive, at an application rate of 600 l of water/ha (converted). The test plants were placed in the greenhouse for ca. 3 weeks under optimum growth conditions, and then the effect of the preparations was assessed visually in comparison with untreated controls (herbicidal effect in percent (%): 100% effect=plants have died off, 0% effect=as control plants).

[3] = system: Digitaria sanguinalis (DIGSA); test: Herbicidal pre-emergence action, section A (Table A12); conditions: for pest or weed control at 320 g/ha / pest or weed control at 1280 g/ha: Digitaria sanguinalis, 504 h, read-out: pre-emergence activity against DIGSA in %; for pest or weed control at 1280 g/ha: application rate 1280 g/ha
In short: (§2)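 Pre-emergence soil-surface application: WP or EC formulations in water plus 0.5% additive, sprayed at 600 l/ha onto soil covering seeds sown in sandy loam. Visual percent damage rated at about 3 weeks against untreated pots, 100% meaning plants died off and 0% meaning like controls.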

[4] = system: Matricaria inodora (MATIN); test: Herbicidal pre-emergence action, section A (Table A6); conditions: visual grading after ca. 3 weeks vs untreated controls; for pest or weed control at 1280 g/ha / pest or weed control at 320 g/ha: Tripleurospermum inodorum, pre-emergence, 504 h, read-out: pre-emergence activity against MATIN in %; for pest or weed control at 320 g/ha: application rate 320 g/ha
In short: as §2

Lolium rigidum (LOLRI) [5] = test: Herbicidal pre-emergence action, section A (Table A5); conditions: visual grading after ca. 3 weeks vs untreated controls; for pest or weed control at 1280 g/ha: application rate 1280 g/ha
In short: as §2

[6] = system: Echinochloa crus-galli (ECHCG); test: Herbicidal pre-emergence action, section A (Table A3); conditions: visual grading after ca. 3 weeks vs untreated controls; for pest or weed control at 1280 g/ha / pest or weed control at 320 g/ha: Echinochloa crus-galli, pre-emergence, 504 h, read-out: pre-emergence activity against ECHCG in %; for pest or weed control at 1280 g/ha: application rate 1280 g/ha; for pest or weed control at 320 g/ha / pre-emergence activity against ECHCG in %: application rate 320 g/ha
In short: as §2

[7] = system: Amaranthus retroflexus (AMARE); test: Herbicidal pre-emergence action, section A (Table A11)
In short: as §2

[8] = system: Amaranthus retroflexus (AMARE); test: Herbicidal post-emergence action, section B (Table B11); conditions: visual rating about 3 weeks after treatment vs untreated controls; for pest or weed control at 320 g/ha / pest or weed control at 1280 g/ha: Amaranthus retroflexus, post-emergence, 504 h, read-out: post-emergence activity against AMARE in %
In short: (§3)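 Post-emergence greenhouse test. One-leaf stage; WP or EC plus 0.5% additive; 600 liters per hectare water volume; visual % rating at ~3 weeks relative to untreated plants.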

[9] = system: Matricaria inodora (MATIN); test: Herbicidal pre-emergence action, section C (Table C6); conditions: application rate 320 g/ha, visual grading after ca. 3 weeks; for pest or weed control at 320 g/ha: Tripleurospermum inodorum, pre-emergence, 504 h, read-out: pre-emergence activity against MATIN in %
Text: Seeds of mono- and dicotyledonous weed plants and crop plants were sown, in plastic or organic planting pots, in sandy loam and covered with soil. The compounds according to the invention, formulated in the form of wettable powders (WP) or as emulsifiable concentrates (EC), were applied to the surface of the covering soil as aqueous suspension or emulsion, with the addition of 0.5% of an additive, at an application rate of 600 l of water/ha (converted). Following treatment, the pots were placed in a greenhouse and kept under optimum growth conditions for the test plants. The visual grading of the damage to the test plants was carried out after ca. 3 weeks in comparison to untreated controls (herbicidal effect in percent (%): 100% effect=plants have died off, 0% effect=as control plants).

[10] = system: Polygonum convolvulus (POLCO); test: Herbicidal post-emergence action, section E (Table E7); conditions: visual assessment ca. 3 weeks after spraying; for post-emergence activity against POLCO in %: application rate 320 g/ha
Text: as §1

Veronica persica (VERPE) = test: Herbicidal post-emergence action, section B (Table B10); conditions: visual rating about 3 weeks after treatment vs untreated controls; for post-emergence activity against VERPE in %: application rate 1280 g/ha; for pest or weed control at 320 g/ha: Veronica persica, post-emergence, 504 h, application rate 320 g/ha, read-out: post-emergence activity against VERPE in %
In short: as §3

Lolium rigidum (LOLRI) [11] = test: Herbicidal post-emergence action, section B (Table B5); conditions: application rate 1280 g/ha, visual rating about 3 weeks after treatment vs untreated controls; for pest or weed control at 1280 g/ha: Lolium rigidum, post-emergence, 504 h, read-out: post-emergence activity against LOLRI in %
Protocol: Seeds of mono- and dicotyledonous weed plants were placed in plastic pots in sandy loam soil (doubly sown with in each case one species of mono- or dicotyledonous weed plants per pot), covered with soil and cultivated in a greenhouse under controlled growth conditions. 2 to 3 weeks after sowing, the test plants were treated at the one-leaf stage. The compounds of the invention, formulated in the form of wettable powders (WP) or as emulsion concentrates (EC), were applied onto the green parts of the plants as aqueous suspension or emulsion with addition of 0.5% additive at a water application rate of 600 liters per hectare (converted). After the test plants had been kept in the greenhouse under optimum growth conditions for about 3 weeks, the activity of the preparations was rated visually in comparison to untreated controls. For example, 100% activity=the plants have died, 0% activity=like control plants.

[12] = system: Alopecurus myosuroides (ALOMY); test: Herbicidal post-emergence action, section E (Table E2); conditions: Alopecurus myosuroides, post-emergence, 504 h; application rate 320 g/ha; assessed visually after ca. 3 weeks; read-out: post-emergence activity against ALOMY in %
Text: as §1

[13] = Lolium rigidum, pre-emergence, 504 h, read-out: pre-emergence activity against LOLRI in %
[14] = Amaranthus retroflexus, 504 h, application rate 320 g/ha, read-out: pre-emergence activity against AMARE in %

SMILES	pest or weed control at 1280 g/ha [1] [%]	pest or weed control at 320 g/ha [2] [%]	pest or weed control at 1280 g/ha ([4]; application rate 1280 g/ha) [%]	pest or weed control at 1280 g/ha (Lolium rigidum (LOLRI) [5]; [13]) [%]	pest or weed control at 320 g/ha [7, 14] [%]	pest or weed control at 320 g/ha ([8]; application rate 320 g/ha) [%]	pest or weed control at 1280 g/ha [3] [%]	pest or weed control at 320 g/ha [6] [%]	pest or weed control at 320 g/ha (Veronica persica (VERPE)) [%]	further results
CC(=O)N1CSc2cc(Br)c(-c3ccccc3Cl)nc21 [Example I-055, 1-[6-bromo-5-(2-chlorophenyl)[1,3]thiazolo[4,5-b]pyridin-3(2H)-yl]ethanone]	90	80	90	100	90	90	–	–	–	pest or weed control at 320 g/ha ([3]; application rate 320 g/ha): 100%; pest or weed control at 1280 g/ha [6]: 100%
CC1(C(=O)N2CSc3cc(Br)c(-c4ccccc4Cl)nc32)CC(Cl)=NO1 (centres unmarked) [Example I-141, [6-bromo-5-(2-chlorophenyl)[1,3]thiazolo[4,5-b]pyridin-3(2H)-yl](3-chloro-5-methyl-4,5-dihydro-1,2-oxazol-5-yl)methanone]	–	80	90	100	100	–	100	100	–	pest or weed control at 320 g/ha [1]: 100%; pest or weed control at 1280 g/ha ([8]; application rate 1280 g/ha): 90%
CC(C)C(=O)N1C[S+]([O-])c2cc(Br)c(-c3ccccc3)nc21 (centres unmarked) [Example I-067]	–	80	–	–	–	–	–	–	–	pest or weed control at 320 g/ha [9]: 80%
BN1CSc2cc(Br)c(-c3ccccc3C)nc21 [Example I-011]	–	–	–	–	–	–	–	–	–	post-emergence activity against POLCO in % [10]: 80%; pre-emergence activity against LOLRI in % (Lolium rigidum (LOLRI) [5]; application rate 320 g/ha): 100%; post-emergence activity against VERPE in % (Veronica persica (VERPE)): 90%; pre-emergence activity against ECHCG in % [6]: 100%; pre-emergence activity against AMARE in % ([7]; application rate 1280 g/ha): 90%; post-emergence activity against AMARE in % ([8]; application rate 1280 g/ha): 90%
Clc1ccccc1-c1nc2c(cc1Br)SCN2 [Example I-041, 6-bromo-5-(2-chlorophenyl)-2,3-dihydro[1,3]thiazolo[4,5-b]pyridine]	90	–	90	100	90	90	100	100	90	pest or weed control at 1280 g/ha (Lolium rigidum (LOLRI) [11]): 90%
CCS(=O)(=O)N1CSc2cc(C)c(-c3ccccc3F)nc21 [Example I-060, 3-(ethylsulfonyl)-5-(2-fluorophenyl)-6-methyl-2,3-dihydro[1,3]thiazolo[4,5-b]pyridine]	–	90	–	100	90	90	–	–	90	pest or weed control at 1280 g/ha (Lolium rigidum (LOLRI) [11]): 90%; pest or weed control at 320 g/ha [1]: 90%; pest or weed control at 320 g/ha ([3]; application rate 320 g/ha): 100%; pest or weed control at 320 g/ha [4]: 90%; pest or weed control at 80 g/ha ([10]; Fallopia convolvulus, 504 h, application rate 80 g/ha, read-out: post-emergence activity against POLCO in %): 90%; pest or weed control at 320 g/ha [12]: 90%; pest or weed control at 320 g/ha [9]: 90%; pest or weed control at 1280 g/ha [6]: 100%
CCS(=O)(=O)N1C[S+]([O-])c2cc(C)c(-c3ccccc3C)nc21 (centres unmarked) [Example I-074]	90	–	–	–	90	–	100	100	90	pest or weed control at 320 g/ha [4]: 90%; pest or weed control at 320 g/ha (Lolium rigidum (LOLRI) [5]; Lolium rigidum, pre-emergence, 504 h, application rate 320 g/ha, read-out: pre-emergence activity against LOLRI in %): 100%; pest or weed control at 320 g/ha [12]: 90%; pest or weed control at 1280 g/ha ([8]; application rate 1280 g/ha): 90%
CCc1ccccc1-c1nc2c(cc1C)[S+]([O-])CN2 (centres unmarked) [Example I-047]	–	–	90	–	–	90	100	100	90	pest or weed control at 1280 g/ha ([7]; Amaranthus retroflexus, 504 h, application rate 1280 g/ha, read-out: pre-emergence activity against AMARE in %): 90%
Cc1cc2c(nc1-c1ccccc1)N(C(=O)C1(C)CC(Cl)=NO1)CS2 (centres unmarked) [Example I-088]	–	–	–	–	–	–	–	–	–	post-emergence activity against LOLRI in % (Lolium rigidum (LOLRI) [11]): 90%; pre-emergence activity against DIGSA in % ([3]; application rate 320 g/ha): 100%; pre-emergence activity against MATIN in % ([4]; application rate 1280 g/ha): 90%; post-emergence activity against POLCO in % [10]: 90%; pre-emergence activity against LOLRI in % (Lolium rigidum (LOLRI) [5]; application rate 320 g/ha): 100%; post-emergence activity against VERPE in % (Veronica persica (VERPE)): 90%; pre-emergence activity against MATIN in % [9]: 90%; pre-emergence activity against ECHCG in % [6]: 100%; pre-emergence activity against AMARE in % ([7]; application rate 320 g/ha): 90%; post-emergence activity against AMARE in % ([8]; application rate 320 g/ha): 90%
